According to PubChem BioAssay AID2060908 (Molecular Pharmacology Branch, DTP, NCI, 2025):

Tested on: 186277-243-T-J2-PDC complex spheroids, viability
Assay: Anticancer human tumor 186277-243-T-J2-PDC patient-derived colon adenocarcinoma cell line growth inhibition [RAS]
Conditions: for IC50: curve of first compound; for viability, T/C: stronger effect = lower value
Method in brief: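 Multi-cell-type spheroids: tumor cells plus HUVEC endothelial cells and mesenchymal stem cells. RAS-pathway inhibitors were combined with targeted agents, each dosed in half-log steps down from clinical Cmax, or from 10 microM when Cmax was unknown.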

[1] = second compound 0.00316 µM, first compound 0.0316 µM
[2] = second compound 0.00316 µM, first compound 0.1 µM
[3] = second compound 0.00316 µM, first compound 0.316 µM
[4] = second compound 0.00316 µM, first compound 1 µM
[5] = second compound 0.00316 µM, first compound 3.16 µM
[6] = second compound 0.00316 µM, first compound 10 µM
[7] = second compound 0.01 µM, first compound 0.0316 µM
[8] = second compound 0.01 µM, first compound 0.1 µM
[9] = second compound 0.01 µM, first compound 0.316 µM
[10] = second compound 0.01 µM, first compound 1 µM
[11] = second compound 0.01 µM, first compound 3.16 µM
[12] = second compound 0.01 µM, first compound 10 µM
[13] = second compound 0.0316 µM, first compound 0.0316 µM
[14] = second compound 0.0316 µM, first compound 0.1 µM
[15] = second compound 0.0316 µM, first compound 0.316 µM
[16] = second compound 0.0316 µM, first compound 1 µM
[17] = second compound 0.0316 µM, first compound 3.16 µM
[18] = second compound 0.0316 µM, first compound 10 µM
[19] = second compound 0.1 µM, first compound 0.0316 µM
[20] = second compound 0.1 µM, first compound 0.1 µM
[21] = second compound 0.1 µM, first compound 0.316 µM
[22] = second compound 0.1 µM, first compound 1 µM
[23] = second compound 0.1 µM, first compound 3.16 µM
[24] = second compound 0.1 µM, first compound 10 µM
[25] = second compound 0.316 µM, first compound 0.0316 µM
[26] = second compound 0.316 µM, first compound 0.1 µM
[27] = second compound 0.316 µM, first compound 0.316 µM
[28] = second compound 0.316 µM, first compound 1 µM
[29] = second compound 0.316 µM, first compound 3.16 µM
[30] = second compound 0.316 µM, first compound 10 µM
[31] = second compound 1 µM, first compound 0.0316 µM
[32] = second compound 1 µM, first compound 0.1 µM
[33] = second compound 1 µM, first compound 0.316 µM
[34] = second compound 1 µM, first compound 1 µM
[35] = second compound 1 µM, first compound 3.16 µM
[36] = second compound 1 µM, first compound 10 µM
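Further: spheroids exposed to compounds for 7 days before viability read.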

`CC(=O)OC12COC1CC(O)C1(C)C(=O)C(O)C3=C(C)C(OC(=O)C(O)C(NC(=O)OC(C)(C)C)c4ccccc4)CC(O)(C(OC(=O)c4ccccc4)C21)C3(C)C` (centres undefined) + C=CC(=O)N1CCN(c2nc(OCC3CCCN3C)nc3c(F)c(-c4nc(N)cc(C)c4C(F)(F)F)c(Cl)cc23)C(C)C1 gave an IC50 (second compound 0.00316 µM) of under 0.0316 µM, an IC50 (second compound 0.01 µM) of under 0.0316 µM and an IC50 (second compound 0.0316 µM) of under 0.0316 µM. It also gave an IC50 (second compound 0.1 µM) of under 0.0316 µM, an IC50 (second compound 0.316 µM) of under 0.0316 µM and an IC50 (second compound 1 µM) of under 0.0316 µM. It also gave a viability, T/C [1] of 8.38%, a viability, T/C [2] of 7.03% and a viability, T/C [3] of 7.44%. The viability, T/C [4] was 6.91%, the viability, T/C [5] was 7.11% and the viability, T/C [6] was 7.02%. The viability, T/C [7] was 8.84%, the viability, T/C [8] was 6.99% and the viability, T/C [9] was 7.34%. The viability, T/C [10] was 7.25%, the viability, T/C [11] was 7.21% and the viability, T/C [12] was 6.02%. It also gave a viability, T/C [13] of 8.72%, a viability, T/C [14] of 7.79% and a viability, T/C [15] of 7.18%. It also gave a viability, T/C [16] of 7.01%, a viability, T/C [17] of 6.46% and a viability, T/C [18] of 5.97%. For the same compound, the viability, T/C [19] was 8.28%, the viability, T/C [20] was 7.95% and the viability, T/C [21] was 8.02%. It also gave a viability, T/C [22] of 7.09%, a viability, T/C [23] of 8.08% and a viability, T/C [24] of 6.87%. For the same compound, the viability, T/C [25] was 8.75%, the viability, T/C [26] was 8.38% and the viability, T/C [27] was 10.2%. The viability, T/C [28] was 8.18%, the viability, T/C [29] was 8.14% and the viability, T/C [30] was 6.78%. For the same compound, the viability, T/C [31] was 12%, the viability, T/C [32] was 9.42% and the viability, T/C [33] was 9.31%. The viability, T/C [34] was 8.34%, the viability, T/C [35] was 11.8% and the viability, T/C [36] was 9.17%.
`CCC(CC)c1cc(NC2CCC(N)C2)n2nccc2n1` (centres undefined) + C=CC(=O)N1CCN(c2nc(OCC3CCCN3C)nc3c(F)c(-c4nc(N)cc(C)c4C(F)(F)F)c(Cl)cc23)C(C)C1 gave an IC50 (second compound 0.00316 µM) of 1.86 µM, an IC50 (second compound 0.01 µM) of 1.67 µM and an IC50 (second compound 0.0316 µM) of 1.8 µM. It also gave an IC50 (second compound 0.1 µM) of 1.55 µM, an IC50 (second compound 0.316 µM) of 1.81 µM and an IC50 (second compound 1 µM) of 1.6 µM. It also gave a viability, T/C [1] of 91.8%, a viability, T/C [2] of 97.2% and a viability, T/C [3] of 89.5%. It also gave a viability, T/C [4] of 117%, a viability, T/C [5] of 7.95% and a viability, T/C [6] of 0.31%. For the same compound, the viability, T/C [7] was 78%, the viability, T/C [8] was 103% and the viability, T/C [9] was 76.2%. The viability, T/C [10] was 84.2%, the viability, T/C [11] was 7.63% and the viability, T/C [12] was 0.49%. For the same compound, the viability, T/C [13] was 86.4%, the viability, T/C [14] was 93.5% and the viability, T/C [15] was 93.8%. The viability, T/C [16] was 115%, the viability, T/C [17] was 5.08% and the viability, T/C [18] was 0.32%. For the same compound, the viability, T/C [19] was 93%, the viability, T/C [20] was 102% and the viability, T/C [21] was 77.5%. It also gave a viability, T/C [22] of 79%, a viability, T/C [23] of 3.18% and a viability, T/C [24] of 0.31%. It also gave a viability, T/C [25] of 81%, a viability, T/C [26] of 94.3% and a viability, T/C [27] of 117%. The viability, T/C [28] was 109%, the viability, T/C [29] was 2.74% and the viability, T/C [30] was 0.35%. For the same compound, the viability, T/C [31] was 102%, the viability, T/C [32] was 91.8% and the viability, T/C [33] was 101%. The viability, T/C [34] was 82.9%, the viability, T/C [35] was 2.87% and the viability, T/C [36] was 0.37%.
